Here are results for three molecules from patent publication US9006440B2, “Furopyridine derivatives” (Merck Patent GmbH, priority 2010, dated 2015).

Bounds are passed on as bounds.

Data set [1] relates to BLNK phosphorylation in Ramos cells. The experiment in a line: BCR crosslinking-induced BLNK phosphorylation (BLNK cell assay). Format: cell-based. As to conditions: Homo sapiens. The method, then: 1. BCR Crosslinking-Induced BLNK Phosphorylation
Ramos cells incubated overnight in IMDM medium containing 5% FCS were resuspended in IMDM medium without serum (3.3×10^6 cells/ml). 90 μl of cell suspension (300′000 cells) were incubated with 10 μl of SYK inhibitors (in 3% DMSO) for 20 minutes at 37° C., in 96 well plates. After preincubation with inhibitors, cells were activated with 10 μg/ml of goat antihuman anti-IgM for 10 minutes at 37° C. After stimulation, cells were fixed by addition of 80 μl of 4% paraformaldehyde followed by a 10 minutes incubation at RT and […] in 0.1% Triton X-100 in PBS. BLNK phosphorylation was detected by flow cytometry after staining of the cells with anti-BLNK-pY84-PE antibodies from BD pharmingen, for 45 minutes at RT.
BLNK phosphorylation in CD19^+ peripheral blood mononuclear cells (PBMC) isolated from buffy coats of healthy volunteers was performed using the same protocol and staining the cells with a mixture of anti-BLNK-pY84-PE, anti CD-19 PerCp and Anti-IgM APC antibodies from BD Pharmingen.

For the next data set, the target named is T1, Syk (Homo sapiens, UniProt P43405).
T1 construct: purchased BPS Bioscience, CA, USA
The data set can be described thus: Syk enzyme assay (SYK flash plate assay / Caliper mobility shift). The data set is classed as biochemical. In outline: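 Flashplate format: 2.5 nM SYK, 400 nM biotinylated peptide, 10 μM ATP with 33P-ATP, pH 7.5, 1 h at 30 °C; radioactivity read, staurosporine background. Caliper format: 90 min at 25 °C, mobility-shift read of substrate-to-product conversion; IC50 from dose-response curve.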

The target in a further data set is T2, BTK (Homo sapiens, UniProt Q06187).
T2 construct: purchased Carna Bioscience, Kobe, Japan
The data set can be described thus: BTK enzymatic assay (Caliper LifeSciences technology). The data set is classed as biochemical. The method, then: (§1) The assays described here are performed on the Caliper Life Sciences LC3000 system This technology provides data on enzyme activity via measurement of the relative amounts of phosphorylated or unphosphorylated fluorescently labelled substrate peptide at the end of an enzymatic reaction. These different states of peptide are resolved by applying a potential difference across the sample. The presence of the charged phosphate group on the product (as opposed to the substrate) causes a different peptide mobility between the two peptides. This is visualized by excitation of the fluorescent label on the substrate and product peptides and represented as peaks within the analysis software.
(§2) In order to measure inhibitor activity of kinase inhibitors on this technology, a TTP Mosquito liquid handling instrument is used to place 0.25 ul of the appropriate concentration of inhibitor in 100% DMSO (for a dose response curve calculation) into each well of a 384-well plate. To this reaction components are added to a final volume of 25 ul. The table below indicates the sequences and concentrations for the assays described in this report. Standard components are 1 mM DTT (Sigma, D0632), 1 mM MgCl2 (Sigma, M1028), 100 mM HEPES pH 7.5 (Calbiochem, 391338), 0.015% Brij-35 (Sigma, B4184).
(§3) The reaction is incubated for 90 min at 25 C, and then stopped by the addition of 70 ul of Stop buffer (100 mM HEPES pH 7.5, 0.015% Brij-35, 10 mM EDTA (Sigma, E7889)).
(§4) The plate is read on a Caliper LC 3000 in an Off-Chip mobility shift assay format, on a 12-sipper chip. Unphosphorylated substrate and phosphorylated product peptide resolve as separate peaks allowing direct measurement of percentage of conversion of substrate to product. The percent conversion can be plotted against concentration of inhibitor to produce a sigmoidal dose response curve, from which an IC50 can be calculated using GeneData Condoseo or a similar product.

For another data set, the target named is T3, KDR (Homo sapiens, UniProt P35968).
T3 construct: purchased BPS Bioscience, CA, USA
The experiment in a line: KDR enzymatic assay (Caliper LifeSciences technology). The data set is classed as biochemical. In outline:
(§5)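 Off-chip mobility-shift assay measuring conversion of a fluorescently labelled peptide substrate, in 100 mM HEPES pH 7.5, 1 mM DTT, 1 mM MgCl2 and 0.015% Brij-35. Reactions ran 90 min at 25 C and were stopped with EDTA. IC50s were derived from percent-conversion dose-response curves.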

The target of the next data set is T4, SRC (Homo sapiens, UniProt P12931).
T4 construct: purchased Carna Bioscience, Kobe, Japan
The experiment in a line: Src enzymatic assay (Caliper LifeSciences technology). The data set is classed as biochemical. The essentials:
as §5

Another data set addresses T5, Zap70 (Homo sapiens, UniProt P43403).
T5 construct: purchased BPS Bioscience, CA, USA
T5 sequence (P43403 1-619): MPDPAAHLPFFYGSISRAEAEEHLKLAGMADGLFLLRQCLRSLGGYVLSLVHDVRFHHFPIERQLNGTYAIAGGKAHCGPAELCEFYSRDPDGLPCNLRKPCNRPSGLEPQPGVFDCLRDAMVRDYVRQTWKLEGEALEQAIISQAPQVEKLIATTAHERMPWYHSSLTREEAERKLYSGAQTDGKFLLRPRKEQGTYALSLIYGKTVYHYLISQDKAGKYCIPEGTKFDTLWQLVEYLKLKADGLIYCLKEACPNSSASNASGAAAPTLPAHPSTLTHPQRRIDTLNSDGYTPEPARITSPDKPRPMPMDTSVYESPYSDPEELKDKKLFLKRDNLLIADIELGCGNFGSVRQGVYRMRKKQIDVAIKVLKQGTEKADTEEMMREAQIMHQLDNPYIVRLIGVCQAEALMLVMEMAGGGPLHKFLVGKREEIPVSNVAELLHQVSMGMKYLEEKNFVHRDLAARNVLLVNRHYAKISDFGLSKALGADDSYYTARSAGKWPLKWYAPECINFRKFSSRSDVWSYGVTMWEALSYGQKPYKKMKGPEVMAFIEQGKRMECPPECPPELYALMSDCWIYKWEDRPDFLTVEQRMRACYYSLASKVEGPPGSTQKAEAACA
The data set can be described thus: ZAP-70 enzymatic assay (Caliper LifeSciences technology). Format: biochemical. As to the method: as §1, §2, §3, §4

For a further data set, the system named is murine model of RA. As to conditions: cited from earlier work.
Data set [2] concerns RA Phase II studies in humans. As to conditions: cited from earlier work.

T3 sequence (P35968 20-1356): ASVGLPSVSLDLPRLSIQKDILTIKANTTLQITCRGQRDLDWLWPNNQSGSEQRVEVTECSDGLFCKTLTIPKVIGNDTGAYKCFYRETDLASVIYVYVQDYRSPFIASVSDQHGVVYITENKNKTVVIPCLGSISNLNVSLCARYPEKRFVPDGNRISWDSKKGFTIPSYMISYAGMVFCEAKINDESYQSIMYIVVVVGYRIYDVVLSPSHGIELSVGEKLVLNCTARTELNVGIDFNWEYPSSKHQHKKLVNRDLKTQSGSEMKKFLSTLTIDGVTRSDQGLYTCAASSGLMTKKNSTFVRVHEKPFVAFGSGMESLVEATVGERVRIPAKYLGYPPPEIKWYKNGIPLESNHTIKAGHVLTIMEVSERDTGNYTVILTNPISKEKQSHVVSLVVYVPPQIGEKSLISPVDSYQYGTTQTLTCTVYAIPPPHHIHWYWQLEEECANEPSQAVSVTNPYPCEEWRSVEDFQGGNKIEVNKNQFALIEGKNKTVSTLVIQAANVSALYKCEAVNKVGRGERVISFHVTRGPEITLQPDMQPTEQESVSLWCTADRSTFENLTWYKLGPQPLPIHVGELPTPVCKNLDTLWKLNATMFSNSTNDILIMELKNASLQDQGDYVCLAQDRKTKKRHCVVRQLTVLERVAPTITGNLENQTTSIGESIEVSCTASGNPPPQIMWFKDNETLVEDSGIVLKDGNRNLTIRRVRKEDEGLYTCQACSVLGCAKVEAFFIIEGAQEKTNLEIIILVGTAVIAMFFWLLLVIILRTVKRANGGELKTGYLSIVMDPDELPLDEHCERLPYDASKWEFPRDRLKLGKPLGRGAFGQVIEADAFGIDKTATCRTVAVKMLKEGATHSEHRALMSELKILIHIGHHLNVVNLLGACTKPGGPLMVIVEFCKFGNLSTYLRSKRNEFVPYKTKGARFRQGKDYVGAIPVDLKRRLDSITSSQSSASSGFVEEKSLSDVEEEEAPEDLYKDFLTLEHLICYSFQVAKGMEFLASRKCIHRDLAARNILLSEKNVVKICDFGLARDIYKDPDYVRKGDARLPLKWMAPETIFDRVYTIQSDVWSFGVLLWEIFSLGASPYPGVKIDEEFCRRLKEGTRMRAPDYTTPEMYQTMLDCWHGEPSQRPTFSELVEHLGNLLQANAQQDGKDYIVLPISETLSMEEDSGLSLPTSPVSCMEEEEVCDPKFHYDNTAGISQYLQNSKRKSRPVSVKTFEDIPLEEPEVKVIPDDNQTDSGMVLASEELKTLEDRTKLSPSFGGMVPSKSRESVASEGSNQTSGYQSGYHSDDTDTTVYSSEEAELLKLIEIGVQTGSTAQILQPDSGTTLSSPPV
T4 sequence (P12931 whole entry): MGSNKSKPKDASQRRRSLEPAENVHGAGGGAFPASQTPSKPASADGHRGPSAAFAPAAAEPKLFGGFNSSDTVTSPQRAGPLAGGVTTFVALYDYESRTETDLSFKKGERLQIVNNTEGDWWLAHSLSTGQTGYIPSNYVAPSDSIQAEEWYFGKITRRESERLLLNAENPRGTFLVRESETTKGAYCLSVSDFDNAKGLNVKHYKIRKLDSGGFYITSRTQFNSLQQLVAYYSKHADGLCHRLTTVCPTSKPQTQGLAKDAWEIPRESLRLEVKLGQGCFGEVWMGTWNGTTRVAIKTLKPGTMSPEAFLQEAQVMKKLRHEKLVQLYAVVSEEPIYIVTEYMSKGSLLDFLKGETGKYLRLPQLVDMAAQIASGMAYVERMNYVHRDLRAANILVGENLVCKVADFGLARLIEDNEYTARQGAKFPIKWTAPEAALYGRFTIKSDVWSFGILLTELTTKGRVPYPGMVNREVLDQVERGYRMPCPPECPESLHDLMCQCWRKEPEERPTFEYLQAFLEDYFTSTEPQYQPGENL
T2 sequence (Q06187 whole entry): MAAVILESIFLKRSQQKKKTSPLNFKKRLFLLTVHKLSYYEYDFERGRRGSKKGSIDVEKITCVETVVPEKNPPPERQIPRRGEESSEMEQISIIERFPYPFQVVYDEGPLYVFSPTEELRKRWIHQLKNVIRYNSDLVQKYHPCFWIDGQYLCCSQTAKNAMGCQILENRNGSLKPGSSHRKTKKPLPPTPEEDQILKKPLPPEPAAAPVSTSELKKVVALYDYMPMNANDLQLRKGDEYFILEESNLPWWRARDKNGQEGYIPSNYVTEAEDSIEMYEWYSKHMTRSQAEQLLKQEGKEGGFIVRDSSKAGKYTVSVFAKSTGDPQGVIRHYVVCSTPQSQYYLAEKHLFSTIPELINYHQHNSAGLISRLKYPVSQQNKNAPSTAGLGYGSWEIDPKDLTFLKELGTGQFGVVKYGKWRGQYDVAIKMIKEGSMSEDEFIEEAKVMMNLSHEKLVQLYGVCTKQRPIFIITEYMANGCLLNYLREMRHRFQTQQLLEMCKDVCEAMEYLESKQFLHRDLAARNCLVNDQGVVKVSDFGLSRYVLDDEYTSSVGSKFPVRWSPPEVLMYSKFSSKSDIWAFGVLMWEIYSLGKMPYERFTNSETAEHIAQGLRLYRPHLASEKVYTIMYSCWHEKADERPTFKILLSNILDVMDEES

Usually IC50 stands for the concentration that gives 50% inhibition. For `COc1cc(-c2cc3nccc(Nc4ccc5[nH]ccc5c4)c3o2)cc(OC)c1OC` [Compound B30], the IC50 was 3 to 50 µM in data set [1]; below 0.3 µM at Syk; 0.3 to 3 µM against BTK; below 0.3 µM against KDR; below 0.3 µM against SRC.
`COc1cc(-c2cc3nccc(-c4ccc5c(c4)NC(=O)C5)c3o2)cc(OC)c1OC` [Compound B71, 6-(2-(3,4,5-Trimethoxyphenyl)furo[3,2-b]pyridin-7-yl)indolin-2-one]: the IC50 in data set [1] was 3 to 50 µM; on Syk, below 0.3 µM; against KDR, 3 to 50 µM; against Zap70, 3 to 50 µM.
As to `COc1cc(Nc2ncc(F)c(Nc3ccc4c(n3)NC(=O)C(C)(C)O4)n2)cc(OC)c1OC` [Compound R406], in the data set on murine model of RA, the bone erosion entry is on record as “significantly reduced” and the serum cytokine concentrations entry is recorded as “significantly reduced”. Also, the clinical scores entry with murine model of RA (orally available) was “significant improvement”. Besides, in data set [2], the “efficacy (ACR scores)” value was “ACR scores improvement” and the tolerability result is “good tolerability”.
